{
  "source": "PubChem BioAssay AID248",
  "about": "(DTP/NCI, 2004)",
  "tested_on": "L1210 leukemia ip in BDF1 mice, survival T/C",
  "test": "NCI In Vivo Anticancer Drug Screen. Data for tumor model L1210 Leukemia (intraperitoneal) in B6D2F1 (BDF1) mice",
  "conditions": "higher = longer survival",
  "procedure,_shortened": "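Each compound was tested against a transplantable tumor grown in mice. The endpoint was survival, with treated animals benchmarked against vehicle controls as a simple ratio.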",
  "note": "Where “and” joins values, the source holds several entries; their conditions need not be identical. Identical values can stand only once. Toxic doses and inconclusive results are not listed.",
  "data": [
    {"smiles": "C[C@H](N)C(=O)N[C@@H]1[C@H]2C(=C(O)C[C@@H](O)[C@@H]2O)C(=O)O[C@@H]1C", "values": [
      {"measurement": "T/C", "setting": "endpoint: mean survival time, dose: 600.0 mg/kg/injection, schedule: Q01DX005 (ip), vehicle: saline", "result": "118 % of control"},
      {"measurement": "T/C", "setting": "endpoint: mean survival time, dose: 600.0 mg/kg/injection, schedule: Q01DX009 (sc), vehicle: saline", "result": "119 % of control"},
      {"measurement": "T/C", "setting": "endpoint: mean survival time, dose: 600.0 mg/kg/injection, schedule: Q03HX016 (ip), vehicle: saline", "result": "110 % of control"},
      {"measurement": "T/C", "setting": "endpoint: mean survival time, dose: 600.0 mg/kg/injection, schedule: Q03HX024 (ip), vehicle: saline", "result": "115 % of control"},
      {"measurement": "T/C", "setting": "endpoint: mean survival time, dose: 600.0 mg/kg/injection, schedule: Q04DX003 (ip), vehicle: saline", "result": "119 % of control"},
      {"measurement": "T/C", "setting": "endpoint: mean survival time, dose: 600.0 mg/kg/injection, schedule: Q08DX002 (ip), vehicle: saline", "result": "113 % of control"},
      {"measurement": "T/C", "setting": "endpoint: mean survival time, dose: 600.0 mg/kg/injection, schedule: Q## X004 (ip), vehicle: saline", "result": "111 % of control"},
      {"measurement": "T/C", "setting": "endpoint: mean survival time, dose: 656.0 mg/kg/injection, schedule: Q01DX015 (ip), vehicle: carboxymethylcellulose (CMC)", "result": "162 % of control"},
      {"measurement": "T/C", "setting": "endpoint: mean survival time, dose: 700.0 mg/kg/injection, schedule: Q01DX001 (ip), vehicle: saline", "result": "110 % of control and 117 % of control"},
      {"measurement": "T/C", "setting": "endpoint: mean survival time, dose: 700.0 mg/kg/injection, schedule: Q07DX Z (ip), vehicle: saline", "result": "114 % of control"},
      {"measurement": "T/C", "setting": "endpoint: mean survival time, dose: 800.0 mg/kg/injection, schedule: Q01DX Z (im), vehicle: saline", "result": "176 % of control"},
      {"measurement": "T/C", "setting": "endpoint: mean survival time, dose: 800.0 mg/kg/injection, schedule: Q01DX Z (oral), vehicle: saline", "result": "108 % of control"},
      {"measurement": "T/C", "setting": "endpoint: mean survival time, dose: 800.0 mg/kg/injection, schedule: Q01DX Z (sc), vehicle: saline", "result": "174 % of control"},
      {"measurement": "T/C", "setting": "endpoint: mean survival time, dose: 800.0 mg/kg/injection, schedule: Q## X032 (ip), vehicle: saline", "result": "117 % of control"},
      {"measurement": "T/C", "setting": "endpoint: mean survival time, dose: 900.0 mg/kg/injection, schedule: Q## X004 (ip), vehicle: saline", "result": "122 % of control"},
      {"measurement": "T/C", "setting": "endpoint: mean survival time, dose: 1084.0 mg/kg/injection, schedule: Q01DX001 (ip), vehicle: saline", "result": "94 % of control and 95 % of control"},
      {"measurement": "T/C", "setting": "endpoint: mean survival time, dose: 1200.0 mg/kg/injection, schedule: Q01DX001 (sc), vehicle: saline", "result": "101 % of control"},
      {"measurement": "T/C", "setting": "endpoint: mean survival time, dose: 1200.0 mg/kg/injection, schedule: Q03HX016 (ip), vehicle: saline", "result": "111 % of control"},
      {"measurement": "T/C", "setting": "endpoint: mean survival time, dose: 1200.0 mg/kg/injection, schedule: Q## X032 (ip), vehicle: saline", "result": "120 % of control and 121 % of control"},
      {"measurement": "T/C", "setting": "endpoint: mean survival time, dose: 1300.0 mg/kg/injection, schedule: Q01DX001 (ip), vehicle: saline", "result": "106 % of control"},
      {"measurement": "T/C", "setting": "endpoint: mean survival time, dose: 1350.0 mg/kg/injection, schedule: Q## X004 (ip), vehicle: saline", "result": "122 % of control"},
      {"measurement": "T/C", "setting": "endpoint: mean survival time, dose: 1400.0 mg/kg/injection, schedule: Q01DX001 (ip), vehicle: saline", "result": "106 % of control and 119 % of control"},
      {"measurement": "T/C", "setting": "endpoint: mean survival time, dose: 1400.0 mg/kg/injection, schedule: Q07DX Z (ip), vehicle: saline", "result": "120 % of control"},
      {"measurement": "T/C", "setting": "endpoint: mean survival time, dose: 1491.0 mg/kg/injection, schedule: Q01DX015 (ip), vehicle: carboxymethylcellulose (CMC)", "result": "155 % of control"},
      {"measurement": "T/C", "setting": "endpoint: mean survival time, dose: 1600.0 mg/kg/injection, schedule: Q01DX Z (im), vehicle: saline", "result": "160 % of control"},
      {"measurement": "T/C", "setting": "endpoint: mean survival time, dose: 1600.0 mg/kg/injection, schedule: Q01DX Z (oral), vehicle: saline", "result": "106 % of control"},
      {"measurement": "T/C", "setting": "endpoint: mean survival time, dose: 1650.0 mg/kg/injection, schedule: Q01DX001 (ip), vehicle: saline", "result": "96 % of control and 97 % of control"},
      {"measurement": "T/C", "setting": "endpoint: mean survival time, dose: 1687.0 mg/kg/injection, schedule: Q02DX004 (ip), vehicle: saline", "result": "166 % of control"},
      {"measurement": "T/C", "setting": "endpoint: mean survival time, dose: 2000.0 mg/kg/injection, schedule: Q01DX001 (ip), vehicle: saline", "result": "120 % of control"},
      {"measurement": "T/C", "setting": "endpoint: mean survival time, dose: 2024.0 mg/kg/injection, schedule: Q01DX001 (ip), vehicle: saline", "result": "115 % of control"},
      {"measurement": "T/C", "setting": "endpoint: mean survival time, dose: 2237.0 mg/kg/injection, schedule: Q01DX015 (ip), vehicle: carboxymethylcellulose (CMC)", "result": "108 % of control"},
      {"measurement": "T/C", "setting": "endpoint: mean survival time, dose: 2400.0 mg/kg/injection, schedule: Q01DX001 (sc), vehicle: saline", "result": "104 % of control"},
      {"measurement": "T/C", "setting": "endpoint: mean survival time, dose: 2400.0 mg/kg/injection, schedule: Q03HX016 (ip), vehicle: saline", "result": "119 % of control"},
      {"measurement": "T/C", "setting": "endpoint: mean survival time, dose: 2400.0 mg/kg/injection, schedule: Q08DX002 (ip), vehicle: saline", "result": "122 % of control"},
      {"measurement": "T/C", "setting": "endpoint: mean survival time, dose: 2464.0 mg/kg/injection, schedule: Q01DX001 (ip), vehicle: saline", "result": "100 % of control"},
      {"measurement": "T/C", "setting": "endpoint: mean survival time, dose: 2800.0 mg/kg/injection, schedule: Q01DX001 (ip), vehicle: saline", "result": "123 % of control"},
      {"measurement": "T/C", "setting": "endpoint: mean survival time, dose: 2800.0 mg/kg/injection, schedule: Q07DX Z (ip), vehicle: saline", "result": "119 % of control"},
      {"measurement": "T/C", "setting": "endpoint: mean survival time, dose: 3000.0 mg/kg/injection, schedule: Q01DX001 (ip), vehicle: saline", "result": "115 % of control"},
      {"measurement": "T/C", "setting": "endpoint: mean survival time, dose: 3200.0 mg/kg/injection, schedule: Q01DX Z (oral), vehicle: saline", "result": "108 % of control"},
      {"measurement": "T/C", "setting": "endpoint: median survival time, dose: 75.0 mg/kg/injection, schedule: Q01DX009 (ip), vehicle: saline", "result": "113 % of control"},
      {"measurement": "T/C", "setting": "endpoint: median survival time, dose: 133.0 mg/kg/injection, schedule: Q04DX003 (ip), vehicle: saline", "result": "97 % of control"},
      {"measurement": "T/C", "setting": "endpoint: median survival time, dose: 266.0 mg/kg/injection, schedule: Q04DX003 (ip), vehicle: saline", "result": "101 % of control"},
      {"measurement": "T/C", "setting": "endpoint: median survival time, dose: 532.0 mg/kg/injection, schedule: Q04DX003 (ip), vehicle: saline", "result": "110 % of control"},
      {"measurement": "T/C", "setting": "endpoint: median survival time, dose: 600.0 mg/kg/injection, schedule: Q01DX009 (ip), vehicle: saline", "result": "160 % of control"},
      {"measurement": "T/C", "setting": "endpoint: median survival time, dose: 1200.0 mg/kg/injection, schedule: Q01DX009 (ip), vehicle: saline", "result": "180 % of control"}
    ]}
  ]
}
